Experimental data as given in PubChem BioAssay (NCI).
Where “and” joins values, the source holds several entries; their conditions need not be identical. Identical values can stand only once.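 Five compound concentrations were applied to cells in 96-well plates for 48 hours; endpoints were derived by simple linear interpolation of the resulting dose-response curve. The concentration for 50% growth inhibition is given as GI50. At the TGI there is no net growth.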

Legend:
Assay in all cases: DTP human tumour cell line panel, 48 h
[1] = system: OVCAR-4 ovarian
[2] = system: NCI/ADR-RES ovarian
[3] = system: K-562 leukemia
[4] = system: HOP-92 NSCLC
[5] = system: RXF 393 renal
[6] = system: SF-295 CNS
[7] = system: LOX IMVI melanoma
[8] = system: SF-539 CNS
[9] = system: 786-0 renal
[10] = system: HOP-62 NSCLC

In the case of `c1ccc(CN2CCc3[nH]c4ccccc4c3C2)cc1`, the TGI [1] was 84.4 µM, the TGI [2] was > 63.3 µM and the TGI [3] was 55.1 µM. For the same compound, the TGI [4] was 62.1 µM, the TGI [5] was > 100 µM and the TGI [6] was 65.9 µM. For the same compound, the TGI [7] was 40.7 µM, the TGI [8] was 56.2 µM and the TGI [9] was 44.5 µM. The TGI [10] was > 73.5 µM.

In the case of `Cc1ccc(C(=O)NCCCOc2ccc(N3C(N)=NC(N)=NC3(C)C)cc2Cl)cc1S(=O)(=O)F`, the GI50 [1] was 81.2 µM, the TGI [1] was > 100 µM and the GI50 [2] was > 100 µM. For the same compound, the TGI [2] was > 100 µM, the GI50 [3] was 8.81 µM and the TGI [3] was > 100 µM. The GI50 [4] was > 100 µM, the TGI [4] was > 100 µM and the GI50 [5] was > 100 µM. The TGI [5] was > 100 µM, the GI50 [6] was > 100 µM and the TGI [6] was > 100 µM. For the same compound, the GI50 [7] was 5.05 µM, the TGI [7] was > 100 µM and the GI50 [8] was 8.1 µM. For the same compound, the TGI [8] was > 100 µM, the GI50 [9] was 80 µM and the TGI [9] was > 100 µM. For the same compound, the GI50 [10] was > 100 µM and the TGI [10] was > 100 µM.

`NC(=S)N=Nc1c(O)[nH]c2c(Cl)cc(Cl)cc12` was tested, and the TGI [1] was > 100 µM, the TGI [2] was 38.7 µM and the TGI [3] was > 100 µM. For the same compound, the TGI [4] was > 100 µM, the TGI [5] was 33.7 µM and the TGI [6] was 46.6 µM. The TGI [7] was 48 µM, the TGI [8] was 34.6 µM and the TGI [9] was 92.9 µM. For the same compound, the TGI [10] was 49.4 µM.

`COc1cccc(/C=C/c2nc3c(cnn3-c3ccccc3)c(=O)[nH]2)c1` was tested, and the GI50 [1] was > 34.9 µM, the TGI [1] was > 100 µM and the GI50 [2] was > 33.7 µM. For the same compound, the TGI [2] was > 100 µM, the TGI [3] was > 100 µM and the GI50 [4] was > 100 µM. For the same compound, the TGI [4] was > 100 µM, the GI50 [5] was 17.3 µM and the TGI [5] was 67.9 µM. For the same compound, the GI50 [6] was 17.8 µM, the TGI [6] was > 100 µM and the GI50 [7] was > 100 µM. For the same compound, the TGI [7] was > 100 µM, the GI50 [8] was > 70 µM and the TGI [8] was > 100 µM. For the same compound, the GI50 [9] was 12.4 µM, the TGI [9] was > 100 µM and the GI50 [10] was 7.19 µM. For the same compound, the TGI [10] was > 100 µM.

With `C=C1C(=O)OC2C1C(OC(=O)/C(C)=C/C)CC(O)(CCl)C1C(O)C=C(C)C21O` (stereo unspecified) the TGI [1] was 30 µM, the TGI [2] was 55.6 µM and the TGI [3] was > 100 µM. The TGI [4] was 24.4 µM, the TGI [5] was 18.3 µM and the TGI [6] was > 100 µM. For the same compound, the TGI [7] was 17.8 µM, the TGI [8] was 65.5 µM and the TGI [9] was 18.4 µM. For the same compound, the TGI [10] was > 67.2 µM.

For `C=C1c2ccccc2C(=O)c2c1c1c(C(=O)OC)c(OC(=O)OCc3ccc([N+](=O)[O-])cc3)ccc1n2Cc1ccccc1`, the GI50 [1] was 23.2 µM, the TGI [1] was > 100 µM and the GI50 [2] was 3.46 µM. For the same compound, the TGI [2] was 15 µM, the GI50 [3] was 2.55 µM and the TGI [3] was > 100 µM. For the same compound, the GI50 [4] was 2.29 µM, the TGI [4] was 7.59 µM and the GI50 [5] was 3.1 µM. For the same compound, the TGI [5] was > 100 µM, the GI50 [6] was 33.7 µM and the TGI [6] was > 100 µM. For the same compound, the GI50 [7] was 35.7 µM, the TGI [7] was > 100 µM and the GI50 [8] was 6.47 µM. For the same compound, the TGI [8] was 32.3 µM, the GI50 [9] was 7.17 µM and the TGI [9] was 26 µM. The GI50 [10] was 13.3 µM and the TGI [10] was 29.3 µM.

For `CS(=O)(=O)Nc1cc(-c2ccc3ncnc(Nc4ccc(F)c(Cl)c4)c3c2)cnc1Cl`, the GI50 [1] was 1.22 µM and 1.47 µM, the TGI [1] was 10.8 µM and 10.4 µM and the GI50 [2] was 2.06 µM and 2.07 µM. For the same compound, the TGI [2] was 30.5 µM and 20 µM, the GI50 [3] was 1.71 µM and the TGI [3] was > 82.4 µM. The GI50 [4] was 0.162 µM and 0.0782 µM, the TGI [4] was 0.893 µM and 0.797 µM and the GI50 [5] was 0.563 µM and 0.31 µM. For the same compound, the TGI [5] was 4.07 µM and 1.71 µM, the GI50 [6] was 0.612 µM and 0.606 µM and the TGI [6] was 4.11 µM and 3.85 µM. For the same compound, the GI50 [7] was 0.503 µM and 0.468 µM, the TGI [7] was 3.49 µM and 2.78 µM and the GI50 [8] was 0.431 µM and 0.541 µM. The TGI [8] was 2.52 µM and 3.33 µM, the GI50 [9] was 0.638 µM and 0.671 µM and the TGI [9] was 5.45 µM and 6.65 µM. The GI50 [10] was 0.295 µM and 1.12 µM and the TGI [10] was 9.01 µM and 27.1 µM.

For `COCCOCCOCc1n(Cc2ccc3ccccc3c2)c2ccccc2[n+]1Cc1ccc2ccccc2c1`, the GI50 [1] was 0.231 µM, the TGI [1] was 1.19 µM and the GI50 [2] was 15.1 µM. For the same compound, the TGI [2] was 44.3 µM, the GI50 [3] was 0.239 µM and the TGI [3] was 1.46 µM. It also gave a GI50 [4] of 0.149 µM, a TGI [4] of 0.829 µM and a GI50 [5] of 0.318 µM. For the same compound, the TGI [5] was 1.58 µM, the GI50 [6] was 0.691 µM and the TGI [6] was 2.16 µM. It also gave a GI50 [7] of 0.419 µM, a TGI [7] of 1.67 µM and a GI50 [8] of 0.587 µM. The TGI [8] was 2.01 µM, the GI50 [9] was 1.31 µM and the TGI [9] was 2.65 µM. For the same compound, the GI50 [10] was 1.17 µM and the TGI [10] was 2.59 µM.

In the case of `O=C(O)C1CC=CCC1C(=O)Nc1cccc(O)c1` (stereo unspecified), the TGI [1] was > 100 µM, the TGI [2] was > 100 µM and the TGI [3] was > 100 µM. For the same compound, the TGI [4] was > 100 µM, the TGI [5] was > 100 µM and the TGI [6] was > 100 µM. For the same compound, the TGI [7] was > 100 µM, the TGI [8] was > 100 µM and the TGI [9] was > 100 µM. For the same compound, the TGI [10] was > 100 µM.

Compound `CNC(=O)c1cc(Oc2cccc3nc(NC(=O)Nc4cc(C(F)(F)F)cc(C(F)(F)F)c4)ccc23)ccn1` has a GI50 [1] of 2.37 µM, a TGI [1] of 7.51 µM and a GI50 [2] of 5.62 µM. The TGI [2] was 52 µM, the GI50 [3] was 9.29 µM and the TGI [3] was > 100 µM. For the same compound, the GI50 [4] was 2.5 µM, the TGI [4] was 6.27 µM and the GI50 [5] was 3.03 µM. For the same compound, the TGI [5] was 9.48 µM, the GI50 [6] was 3.69 µM and the TGI [6] was 15.2 µM. For the same compound, the GI50 [7] was 3.26 µM, the TGI [7] was 29.5 µM and the GI50 [8] was 6.68 µM. The TGI [8] was 37.9 µM, the GI50 [9] was 2.41 µM and the TGI [9] was 5.73 µM. It also gave a GI50 [10] of 3.37 µM and a TGI [10] of 10.4 µM.

`O=C(NCCc1ccccc1)Nc1ccc2cc3ccc(NC(=O)NCCc4ccccc4)cc3nc2c1` was tested, and the GI50 [1] was 1.48 µM, the TGI [1] was 3.48 µM and the GI50 [2] was > 100 µM. The TGI [2] was > 100 µM, the GI50 [3] was 0.392 µM and the TGI [3] was 35.7 µM. It also gave a GI50 [4] of 1.47 µM, a TGI [4] of 3 µM and a GI50 [5] of 1.32 µM. The TGI [5] was 6.49 µM, the GI50 [6] was 1.94 µM and the TGI [6] was 4.79 µM. For the same compound, the GI50 [7] was 0.202 µM, the TGI [7] was 0.445 µM and the GI50 [8] was 1.33 µM. It also gave a TGI [8] of 2.7 µM, a GI50 [9] of 2.07 µM and a TGI [9] of 6.93 µM. For the same compound, the GI50 [10] was 1.55 µM and the TGI [10] was 3.75 µM.

`[N-]=[N+]=NCCCn1c2c(c3ccc([N+](=O)[O-])cc3c1=O)C(=O)c1cc3c(cc1-2)OCO3` was tested, and the GI50 [1] was 4.83 µM, the TGI [1] was > 100 µM and the GI50 [2] was < 0.0114 µM. The TGI [2] was < 0.041 µM, the TGI [3] was > 100 µM and the GI50 [4] was 2.56 µM. For the same compound, the TGI [4] was > 33.5 µM, the GI50 [5] was 0.39 µM and the TGI [5] was 40.3 µM. The GI50 [6] was < 0.012 µM, the TGI [6] was < 0.0428 µM and the GI50 [7] was < 0.01 µM. For the same compound, the TGI [7] was 1.02 µM, the GI50 [8] was < 0.0171 µM and the TGI [8] was < 0.0363 µM. For the same compound, the GI50 [9] was < 0.0141 µM and the TGI [9] was < 0.025 µM.

Compound `Nc1ccccc1C#C/C=C\C#CC#C/C=C\C#Cc1ccccc1N` has a GI50 [1] of 14.6 µM, a TGI [1] of 92.8 µM and a GI50 [2] of 2.85 µM. The TGI [2] was 16.3 µM, the GI50 [3] was 0.781 µM and the TGI [3] was > 100 µM. It also gave a GI50 [4] of 1.77 µM, a TGI [4] of 8.35 µM and a GI50 [5] of 2.18 µM. The TGI [5] was 6.22 µM, the GI50 [6] was 5.23 µM and the TGI [6] was 30.2 µM. It also gave a GI50 [7] of 1.75 µM, a TGI [7] of 11.6 µM and a GI50 [8] of 3.96 µM. The TGI [8] was 16.6 µM, the GI50 [9] was 9.76 µM and the TGI [9] was 24.6 µM. For the same compound, the GI50 [10] was 10.5 µM and the TGI [10] was 28.1 µM.

For `CCOC(=O)C(Cc1c[nH]c2cc(N(CCO)CCO)ccc12)(NC(C)=O)C(=O)OCC`, the GI50 [1] was > 1000 µM, the TGI [1] was > 1000 µM and the GI50 [2] was > 1000 µM. For the same compound, the TGI [2] was > 1000 µM, the GI50 [3] was 81.7 µM and the TGI [3] was 501 µM. The GI50 [4] was > 1000 µM, the TGI [4] was > 1000 µM and the GI50 [5] was 128 µM. The TGI [5] was 719 µM, the GI50 [6] was > 1000 µM and the TGI [6] was > 1000 µM. For the same compound, the GI50 [7] was 217 µM, the TGI [7] was > 1000 µM and the GI50 [8] was 42.9 µM and 286 µM. For the same compound, the TGI [8] was 770 µM, the GI50 [9] was 919 µM and the TGI [9] was > 1000 µM. For the same compound, the GI50 [10] was > 1000 µM and the TGI [10] was > 1000 µM.
